Data as given in patent publication US20250296955A1, “PIN1 TARGETING COMPOUNDS AND DEGRADERS AND METHODS THEREOF” (The Regents of the University of California, priority 2024, published 2025).
Where two headings read alike, the source gives them in different places. Where a SMILES comes first, the peptide text is derived from it. [ ]: non-standard residue; d: D form. The star is where a group is joined. Phe(4-NO2) = N[C@@H](Cc1ccc([N+](=O)[O-])cc1)C(=O)O; Trp(5-OH) = N[C@@H](Cc1c[nH]c2ccc(O)cc12)C(=O)O; pY = N[C@@H](Cc1ccc(OP(=O)(O)O)cc1)C(=O)O; Phe(3-CN) = N#Cc1cccc(C[C@H](N)C(=O)O)c1; Phe(4-CN) = N#Cc1ccc(C[C@H](N)C(=O)O)cc1; mTyr = N[C@@H](Cc1cccc(O)c1)C(=O)O; Pip = O=C(O)[C@@H]1CCCCN1; ClAc = O=C(CCl)*

How the values were obtained:
[1] = molecular target: T1, Pin1 (Homo sapiens, UniProt Q13526); test: Denaturation thermal shift assay (SYPRO Orange); format: binding; design: human Pin1 (residues 1-163); made in house; host or cells: E. coli BL21 (DE3) gold pLysS
Text: (§1) Important to the success of structure activity relations studies, robust biochemical, biophysical, and cell-based assays were implemented that enabled rapid and iterative evaluations of test Pin1 targeting agents. First, the DELFIA (Dissociation-enhanced lanthanide fluorescent immunoassay) assay platform was used to derive a robust heterogeneous assay to monitor the ability of test agents to displace the binding between Pin1 and the D-Peptide (Table 1), which was obtained in a biotinylated form (FIG. 10). […] Second, for an orthogonal biophysical assay denaturation thermal shift measurements were used. Pin1 was incubated with vehicle control (buffer with 1% DMSO), or test agents at protein: ligand ratio of 1:2 (20 μM protein-40 μM compound) for 10 min at 10° C. in the presence of the fluorescent dye SYPRO Orange. The samples were gradually exposed to increasing temperature (linear gradient from 10° C. to 95° C.), causing the protein to unfold. This unfolding allowed the fluorescent dye to bind to the protein's exposed hydrophobic residues, resulting in an increase in fluorescence. The thermal shift assay measures the protein's melting temperature (Tm), which is the temperature at which the protein denatures by 50%. Ligands can affect a protein target to thermal denaturation, which could manifest in a positive or negative shift in the protein denaturation temperature (ΔTm) (Bai N, Roder H, Dickson A, & Karanicolas J (2019) Scientific Reports 9; and Kranz J K & Schalk-Hihi C (2011) Fragment-Based Drug Design: Tools, Practical Approaches, and Examples 493:277-298). Using these two assays, a series of commercially available Pin1 inhibitors were profiled (Table 1). The non-covalent agent D-peptide resulted only moderately active, with an IC50 value of ˜3 μM that closely resembled the dissociation constant for this agent determined via isothermal titration calorimetry, and the ˜ 3 μM IC50 value as reported by a fluorescence polarization assay (Pinch B J, et al. (2020) Nat Chem Biol 16(9):979-987). […] (Table 1) was observed.
Thermal shift assays for Pin1 alone and in the presence of the inhibitors were obtained with a BioRad CFX Connect Real-Time PCR Detection System. Each data point was collected in quadruplicate. Each sample was prepared using buffer 50 mM Phosphate pH 7.5, 150 mM NaCl, 1% DMSO. Protein: ligand ratio used was 1:2 (20 μM protein-40 μM compound), and SYPRO Orange was used. Incubation of the Pin1 protein with the compounds was performed at 10° C. for 10 min. Samples were then heated from 10 to 95° C. with heating increments of 0.05° C., over 30 min. Fluorescence intensity was measured within the excitation/emission ranges 470-505/540-700 nm.

[2] = molecular target: T1, Pin1; test: DELFIA displacement assay (displacement of biotinylated D-peptide from 6His-Pin1); format: binding; design: human Pin1 (residues 1-163); made in house; host or cells: E. coli BL21 (DE3) gold pLysS
Text: as §1
For the reported covalent agents such as sulfopin (Dubiella C, et al. (2021) Nat Chem Biol 17(9):954-963), BJP-07-017-3 (Pinch B J, et al. (2020) Nat Chem Biol 16(9):979-987), or KPT-6566 (Campaner E, et al. (2017) Nat Commun 8:15772), a 6-h pre-incubation period was included in the DELFIA assay to allow the covalent reaction to take place. For those agents, IC50 values that fell in the low nanomolar range were observed, consistent with what was reported previously for those compounds. […] To make those determinations in a broader panel of cancer cell lines three pancreatic cancer cell lines, BxPC3, MIA-PaCa-2, and PANC-1, the breast cancer cell line MDA-MB-231, the prostate cancer cell line PC3, and the non-small cell lung cancer cell line A549 were chosen. Each cell line represents various states of KRAS activating mutations (for example BxPC3 is wt-KRAS, while MIAPaCa2 carries the KRAS(G12C) mutation, and the PANC-1 the KRAS(G12D) (Miquel M, Zhang S, & Pilarsky C (2021) Front Cell Dev Biol 9:748631), A549 is KRAS(G12S) (Wang H, et al. (2019) EBioMedicine 49:106-117), MDA-MB-231 is KRAS(G13D) (Kim R K, et al. (2015) Exp Mol Med 47(1):e137), PC3 is wt-KRAS (Bouali S, et al. (2009) Oncol Rep 21(3):731-735). Pin1 protein levels in these cell lines were established using a specific Pin1 antibody in western blot analyses (FIG. 1A). The data confirmed that all these selected human cancer cell lines expressed a significant level of Pin1 (FIG. 1A).
Each well of 96-well streptavidin-coated plates (PerkinElmer) was incubated with 100 μL of 200 nM biotinylated D-peptide for 2 h and washed 3 times with a wash solution (PerkinElmer). Subsequently, a mixture containing Pin1, and a serial dilution of the test compounds were pre-incubated for 6 h. Eu-N1-labeled anti-6x-His antibody (PerkinElmer, 1:2000) was then added to this mixture and further incubated in the biotinylated D-peptide-bound plates for another 2 h. […]

[3] = Table 2, ± SE of four replicates
[4] = Table 3, single transition, ± SE of four replicates

T1 sequence (Q13526 whole entry, the tested form may be a part): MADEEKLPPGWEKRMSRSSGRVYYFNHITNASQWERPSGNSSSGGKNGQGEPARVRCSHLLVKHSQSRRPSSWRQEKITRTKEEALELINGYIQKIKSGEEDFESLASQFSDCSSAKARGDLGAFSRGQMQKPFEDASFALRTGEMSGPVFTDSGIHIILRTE

Row | SMILES | ΔTm (° C.) [1, 4] | IC50 ([2]; Table 3, ± SD from duplicates) | also measured
1 | CN[C@@H](Cc1ccccc1)C(=O)N1CCCC[C@H]1C(=O)N[C@@H](Cc1c[nH]c2ccccc12)C(=O)N[C@@H](CCCNC(N)=O)C(N)=O [158B3] (HELM PEPTIDE1{[meF].[O=C([C@@H]1CCCCN1[*:1])[*:2]].W.[Cit].[am]}$$$$V2.0) |  |  | ΔTm (° C.) [1, 3]: 0.62 ± 0.04 °C; ΔTm ([1]; running text and figure legends): +0.62 °C; IC50 [2]: > 10 µM; IC50 ([2]; Table 2, in μM): > 10 µM
2 | NC(=O)[C@H](Cc1c[nH]c2ccccc12)NC(=O)[C@@H]1CCCCN1C(=O)[C@H](Cc1cccc(O)c1)NC(=O)CCl [158D9] (ClAc-[mTyr]-[Pip]-Trp-NH2) | −8.28 ± 0.04 °C | 0.034 ± 0.002 µM | 
3 | NC(=O)[C@H](Cc1c[nH]c2ccccc12)NC(=O)[C@@H]1CCCCN1C(=O)[C@H](Cc1ccccc1)NC(=O)CCl [158D10] (HELM PEPTIDE1{[O=C(CCl)[*:2]].F.[O=C([C@@H]1CCCCN1[*:1])[*:2]].W.[am]}$$$$V2.0) |  |  | ΔTm (° C.) [1, 3]: −10.40 ± 0.04 °C; IC50 ([2]; Table 2, ± SD from duplicates): 0.146 ± 0.019 µM
4 | CN(C(=O)CCl)[C@@H](Cc1ccccc1)C(=O)N1CCCC[C@H]1C(=O)N[C@@H](Cc1c[nH]c2ccccc12)C(N)=O [158D11] (HELM PEPTIDE1{[O=C(CCl)[*:2]].[meF].[O=C([C@@H]1CCCCN1[*:1])[*:2]].W.[am]}$$$$V2.0) |  |  | ΔTm (° C.) [1, 3]: −10.66 ± 0.04 °C
5 | NC(=O)[C@H](Cc1c[nH]c2ccccc12)NC(=O)[C@@H]1CCCCN1C(=O)[C@H](Cc1ccc(OP(=O)(O)O)cc1)NC(=O)CCl [158E7] (ClAc-[pY]-[Pip]-Trp-NH2) | −7.08 ± 0.22 °C | 0.327 ± 0.025 µM | 
6 | NC(=O)[C@H](Cc1c[nH]c2ccc(O)cc12)NC(=O)[C@@H]1CCCCN1C(=O)[C@H](Cc1ccccc1)NC(=O)CCl [158F9] (ClAc-Phe-[Pip]-[Trp(5-OH)]-NH2) | −9.99 ± 0.00 °C | 0.135 ± 0.001 µM | 
7 | NC(=O)[C@H](Cc1c[nH]c2ccccc12)NC(=O)[C@@H]1CCCCN1C(=O)[C@H](Cc1ccc([N+](=O)[O-])cc1)NC(=O)CCl [158G2] (ClAc-[Phe(4-NO2)]-[Pip]-Trp-NH2) | −10.16 ± 0.04 °C | 0.134 ± 0.013 µM | 
8 | N#Cc1cccc(C[C@H](NC(=O)CCl)C(=O)N2CCCC[C@H]2C(=O)N[C@@H](Cc2c[nH]c3ccccc23)C(N)=O)c1 [158G3] (ClAc-[Phe(3-CN)]-[Pip]-Trp-NH2) | −10.06 ± 0.07 °C | 0.132 ± 0.021 µM | 
9 | N#Cc1ccc(C[C@H](NC(=O)CCl)C(=O)N2CCCC[C@H]2C(=O)N[C@@H](Cc2c[nH]c3ccccc23)C(N)=O)cc1 [158G4] (ClAc-[Phe(4-CN)]-[Pip]-Trp-NH2) | −9.71 ± 0.07 °C | 0.118 ± 0.021 µM | 
10 | NC(=O)[C@H](Cc1c[nH]c2ccccc12)NC(=O)[C@@H]1CCCCN1C(=O)[C@H](Cc1ccc(O)cc1)NC(=O)CCl [158G5] (HELM PEPTIDE1{[O=C(CCl)[*:2]].Y.[O=C([C@@H]1CCCCN1[*:1])[*:2]].W.[am]}$$$$V2.0) | −9.29 ± 0.04 °C | 0.119 ± 0.006 µM | 
11 | O=C(CCl)N[C@@H](Cc1ccccc1)C(=O)N1CCCC[C@H]1C(=O)NCCc1c[nH]c2cc(Cl)cc(Cl)c12 [158G6] |  | 0.327 ± 0.018 µM | share of first thermal shift peak ([1]; Table 3, percentage in brackets after first ΔTm): 70%; share of second thermal shift peak ([1]; Table 3, percentage in brackets after second ΔTm): 30%; ΔTm (° C.), first of two peaks ([1]; Table 3, two peaks observed, likely incomplete complex formation): +1.04 ± 0.08 °C; ΔTm (° C.) ([1]; Table 5, only one transition given): +1.04 ± 0.08 °C
